{"source": "patent US20140329782A1", "about": "“COMBINED THERAPEUTIC AGENT” (priority 2011, published 2014)", "key": {"[1]": {"test_system": "Crohn's disease", "settings": "cited from earlier work"}, "[2]": {"settings": "in vivo; cited from earlier work"}, "[3]": {"test_system": "peripheral mononuclear cells isolated from the blood of the test subjects", "settings": "100 μg/ml calcitriol, cited from earlier work"}, "[4]": {"test_system": "patients suffering from persistent asthma (GINA II)", "test": "Use and efficacy study in patients with persistent asthma (GINA II)", "format": "in vivo, human", "procedure": "• In the context of a first set of investigations, 11 patients from 32 to 65 years of age suffering from persistent asthma (GINA II) were treated with a combination therapy composed of inhaled glucocorticoid (beclomethasone, 2×200 μg/which inhalational) and inhaled long-acting beta-2 sympathomimetics (LABA, salmeterol) and also, perorally, theophylline. After one week of therapy, it was possible to achieve mild improvement of pulmonary function in 5 of the 11 test subjects. […] In two of the treated patients, it was also possible to reduce the beta-2 agonist demand by 10%. A further group based on 9 patients from 39 to 70 years of age having an identical indication, i.e., persistent asthma (GINA II), who were similarly administered with the abovementioned combination therapy composed of inhaled glucocorticoid and inhaled long-acting beta-2 sympathomimetics and also theophylline additionally received vitamin D for one week in a daily dose of 80 μg. After one week of therapy with the aforementioned dose, it was possible to achieve a mild to moderate improvement in pulmonary function in 6 of the 9 test subjects. After continued long-term therapy for 12 weeks, the persistent bronchial asthma had stabilized insofar as it was possible to reduce the inhaled glucocorticoid need by up to 60% in 7 of the 9 patients and it was possible to even completely temporarily discontinue the inhaled glucocorticoids in 1 of the 9 patients. […] In 4 of the treated patients, it was also possible to reduce the beta-2 agonist need by up to 40%."}, "[5]": {"settings": "after long-term therapy for 12 weeks"}}, "data": [{"compound": "CCCC1O[C@@H]2C[C@H]3[C@@H]4CCC5=CC(=O)C=C[C@]5(C)[C@H]4[C@@H](O)C[C@]3(C)[C@]2(C(=O)CO)O1", "note": "(some centres unmarked) [budesonide]", "values": [{"measurement": "systemic adverse effects", "setting": "[1]; 6 mg of budesonide", "result": "frequent systemic adverse effects with cortisol suppression"}]}, {"compound": "Cn1cnc([N+](=O)[O-])c1Sc1ncnc2nc[nH]c12", "note": "[azathioprine]", "values": [{"measurement": "remission", "setting": "[1]; maintaining remission", "result": 83, "unit": "%"}]}, {"compound": "C=C1CC[C@H](O)C/C1=C/C=C1\\CCC[C@]2(C)[C@@H]([C@H](C)CCCC(C)(C)O)CC[C@@H]12", "note": "[calcifediol, 25-Hydroxyvitamin D3]", "values": [{"measurement": "half life", "setting": "[2]", "result": "about 2.5 weeks"}]}, {"compound": "C=C1/C(=C\\C=C2/CCC[C@]3(C)[C@@H]([C@H](C)CCCC(C)(C)O)CC[C@@H]23)C[C@@H](O)C[C@@H]1O", "note": "[calcitriol, 1,25-dihydroxyvitamin D3]", "values": [{"measurement": "production of interferon gamma", "setting": "[3]", "result": "reduces"}, {"measurement": "production of interleukin 10", "setting": "[3]", "result": "stimulates"}, {"measurement": "inhibition of TNF-alpha production by patient group", "setting": "[3]; Crohn's disease patients vs healthy", "result": "only in cells from patients suffering from Crohn's disease and not in cells from healthy patients"}, {"measurement": "production of TNF-alpha in peripheral mononuclear cells", "setting": "[3]; cells from patients suffering from inflammatory bowel diseases", "result": "could be lowered"}]}, {"compound": "vitamin D", "values": [{"measurement": "patients in whom inhaled glucocorticoids could be completely temporarily discontinued", "setting": "[4]; after 12 weeks", "result": "1 of the 9"}, {"measurement": "patients in whom the beta-2 agonist demand could be reduced", "setting": "[4]; after 12 weeks", "result": 4}, {"measurement": "patients in whom the inhaled glucocorticoid demand could be reduced", "setting": "[4]; after 12 weeks", "result": "7 of the 9"}, {"measurement": "reduction of the beta-2 agonist demand", "setting": "[4]; [5]", "result": "up to 40%"}, {"measurement": "reduction of the inhaled glucocorticoid demand", "setting": "[4]; [5]", "result": "up to 60%"}, {"measurement": "test subjects with improvement of pulmonary function", "setting": "[4]; after one week of therapy", "result": "6 of the 9"}, {"measurement": "tolerability", "setting": "[4]; vitamin D 80 μg daily added to the combination therapy", "result": "well tolerated with no adverse effects"}]}]}
